This is an account of results in patent publication US20060240405A1, “Method for assaying replication of hbv and testing ... drugs” (priority 2002, published 2006).

For the test, the system named is wild type HBV genomes population. In words: Phenotypic drug susceptibility assay: Huh7 cells transfected with type-I vector clones, Southern blot of intracellular replicative HBV DNA intermediates. The conditions noted are these: Hepatitis B virus, Huh-7, read-out: IC50 (intracellular replicative HBV DNA intermediates).

For orientation: IC50 means the concentration that gives 50% inhibition. With `Nc1ccn([C@@H]2CS[C@H](CO)O2)c(=O)n1` [lamivudine, β-L-(−)-2′,3′-dideoxy-3′-thiacytidine], the IC50 is under 0.1 µM.
